What is called Kd is the concentration at which binding is half-saturated. High values mean lower affinity, low ones higher affinity.

Drawing on patent US20240116892A1, “HETEROCYCLIC AMIDE AND UREA COMPOUNDS AS JAK2 INHIBITORS” (Ajax Therapeutics, Inc., priority 2022, published 2024), this text covers Kd for 5 compounds.

This assay has as its target JAK2 (JH1 domain-catalytic, Y1007F, Y1008F) kinase (Homo sapiens (Human), UniProt O60674, Y1007F/Y1008F). The assay can be described thus: JAK2 JH1 Domain Binding Assay. The conditions noted are these: qPCR readout. Put shortly: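 JH1 catalytic domain (Y1007F/Y1008F) expressed as NFkB DNA-binding-domain fusion in HEK293 cells, DNA-tagged. Competition with immobilized biotinylated ligand on streptavidin beads, 1 h at RT in PBS/Tween/BSA/DTT; bound kinase eluted with free ligand and quantified by qPCR.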
(Quantitative PCR measures a nucleic acid by following its amplification.)

The structures appear in SMILES notation.

JAK2 (JH1 domain-catalytic, Y1007F, Y1008F) kinase, sequence (O60674 849-1124 Y1007F/Y1008F): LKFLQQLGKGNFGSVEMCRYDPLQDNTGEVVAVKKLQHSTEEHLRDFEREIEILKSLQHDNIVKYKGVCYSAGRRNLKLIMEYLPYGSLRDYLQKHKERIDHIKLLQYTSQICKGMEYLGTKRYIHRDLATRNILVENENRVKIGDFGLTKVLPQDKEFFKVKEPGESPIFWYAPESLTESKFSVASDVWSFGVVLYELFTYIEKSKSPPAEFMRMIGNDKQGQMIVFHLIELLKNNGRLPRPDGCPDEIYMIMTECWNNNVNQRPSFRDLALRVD

`CO[C@@H]1CN(c2cnc3[nH]nc(N(C)C)c3c2)CC[C@H]1N(C)C(=O)Nc1cc(C(F)(F)F)cn(C)c1=O` [Example I-115-a, 1-((3R,4R)-1-(3-(dimethylamino)-1/-pyrazolo[3,4-b]pyridin-5-yl)-3-methoxypiperidin-4-yl)-1-methyl-3-(1-methyl-2-oxo-5-(trifluoromethyl)-1,2-dihydropyridin-3-yl)urea] showed a Kd of 10 to 50 nM. Then `Cn1cc(C(F)(F)F)cc(NC(=O)N(C)[C@H]2CC[C@@H](c3cnc4[nH]cc(N5CCOCC5)c4n3)CC2)c1=O` [Example I-142, cis-1-methyl-3-(1-methyl-2-oxo-5-(trifluoromethyl)-1,2-dihydropyridin-3-yl)-1-(4-(7-morpholino-5H-pyrrolo[2,3-b]pyrazin-2-yl)cyclohexyl)urea], with 50 to 1000 nM. As for `COCCOc1n[nH]c2ncc(N3CC[C@H](N(C)C(=O)Nc4cc(C(F)(F)F)cn(C)c4=O)[C@H](F)C3)cc12` [Example I-104-b, 1-((3R,4S)-3-fluoro-1-(3-(2-methoxyethoxy)-1H-pyrazolo[3,4-b]pyridin-5-yl)piperidin-4-yl)-1-methyl-3-(1-methyl-2-oxo-5-(trifluoromethyl)-1,2-dihydropyridin-3-yl)urea], the figure is < 10 nM; as for `CN1CCC(c2n[nH]c3ncc(N4CC[C@H](N(C)C(=O)Nc5cc(C(F)(F)F)cn(C)c5=O)C(F)(F)C4)cc23)CC1` (single isomer, unassigned) [Example I-122-a], < 10 nM; as for `CN(C(=O)Nc1cc(C(F)(F)F)cn(C)c1=O)[C@@H]1CCN(c2cnc3[nH]ccc3n2)C[C@H]1F` (single isomer, unassigned) [Example I-63-a], < 10 nM.
